In series [1] the test system is diabetic porcine model. Description: Insulin infusion site-loss study in diabetic porcine model (extended wear infusion set). It counts as in vivo, pig. Conditions: for Effect on site-loss compared with control: diabetic pigs, agent given with insulin (Humalog) infusion, control without agent; for No site loss for: Sof-Set. As for the experimental part:
The objectives of this study include duplicating the site-loss phenomena observed in previous studies using a diabetic porcine model. Additionally, various infusion set configurations are evaluated for reducing site-loss and extending infusion set wear. Further, site-loss is mitigated using a response-inhibiting agent and/or infusion pump to increase reliability of wear for 3 days and extend infusion set wear beyond 3 days.
The objectives of this study include: duplicating the site-loss phenomena observed in previous studies using the diabetic porcine model; using the established diabetic porcine model to evaluate the effects of various infusion set designs on infusion site-loss; and testing if site-loss can be mitigated by direct pump infusing of immunosuppressant/anti-inflammatory drugs, and/or by modifying infusion set by drug coating.
This study is designed so that each set (inserted under anesthesia) is to be worn for 1 week unless there was set failure/dislodge. Glucose is monitored by a blood glucose meter and Enlite™ sensor. The criteria for determining site loss is that blood glucose is greater than 350 mg/dl and fails to decrease following an insulin dose correction. During biopsy pumps are removed but the cannula is maintained in-situ. Site skin is examined for edema/erythema (swell/redness) (see FIG. 8).

For series [2], the system named is normal and diabetic Yucatan pigs. Description: PK/PD study: blood glucose response to Humalog. The class given is in vivo. The source says: (§1) The goal of studying insulin infusion site-loss using a diabetic porcine model is to establish the methods and animal model necessary to reproduce the phenomenon of site-loss in Continuous Subcutaneous Insulin Infusion (CSII). Methodologies are established for evaluating infusion sites in healthy and diabetic pigs, including device placement and animal management, glucose monitoring, insulin detection, pharmacokinetics, site harvesting, and pathological evaluation. The host response to implanted functional devices is assessed in healthy and diabetic pigs. Parameters that are believed to impact site-loss are varied until site-loss is observed.

The subject of the next series is diabetic Yucatan pigs. Description: Site-loss evaluation during CSII (Example 1). The class given is in vivo.
Description: as §1
Site-loss was evaluated using a criteria of a prolonged high blood glucose level (greater than 350 mg/dl) as well as being ineffectively controlled by increasing insulin basal/bolus rate. Site-loss observed was pig dependent, sometimes site-dependent. […] The other two pigs (#341425 and #341426) had no site-loss in 7 days if a proper site was located. In general, the pigs with observed site-loss were less responsive to a Humalog™ dose. Histologically, the predominant tissue response was inflammation and, with longer infusion, fibrosis. Inflammation scores trended to be of higher grade in diabetic pigs compared to normal pigs, with a larger inflammation area around the catheter tip. […]

A further series concerns diabetic pig. Description: Histopathology of infusion sites (inflammation at catheter tip and body). The class given is in vivo. The source says: FIG. 2A is a series of histologic evaluations at the catheter tip showing the inflammatory response (score), and size of the area with tissue reaction. “*” indicates the catheter location and “F” indicates normal fat. […] FIG. 2B is a series of graphs illustrating the inflammation at the catheter tip for diabetic and non-diabetic pigs. Localized inflammation loosely correlated with site-loss.
FIG. 2C is a series of graphs illustrating the predominate inflammation cells at the catheter tip and catheter body (qualitative). To isolate the main inflammation contributors, a catheter, a catheter infused with insulin (Humalog™), and a catheter infused with placebo were placed on a diabetic pig at the same time.
FIG. 2D is a series of graphs illustrating the predominate inflammation cells at the catheter tip and catheter body of an insulin injection port (i-Port™). To isolate the main inflammation contributors, a catheter, a catheter infused with insulin, and a catheter infused with placebo were placed on a diabetic pig. Compared to continuous infusion, the giant cells are missing in the i-Port™ study. […] As observed by the pathologist, the pigs may have developed a hypersensitivity to the Humalog™ and such a reaction would contribute to the inflammation seen (the degree that hypersensitivity is influencing the inflammation is unclear but it could be one of the main drivers).

For series [3], the system named is diabetic porcine model. The series can be described thus: Local toxicity observation in diabetic porcine model. The note with it: prefilled heparin/insulin, Sof-Set; heparin 100-800 U/mL insulin (U100).
The mark [4] stands for this setting: diabetic pigs, compared to catheter and placebo.

Entries after “also recorded” stand apart in the source; their conditions may differ. A value given as a limit tells only on which side of the number the result lay.

In the case of `C[C@H]1C[C@H]2[C@@H]3CCC4=CC(=O)C=C[C@]4(C)[C@@]3(F)[C@@H](O)C[C@]2(C)[C@@]1(O)C(=O)COP(=O)([O-])[O-].[Na+].[Na+]` [BSP, Betamethasone Sodium phosphate], in the series on diabetic porcine model [1], the “Effect on site-loss compared with control” value is listed as “performing significantly worse than the control”.

On to `C[C@@H]1C[C@H]2[C@@H]3CCC4=CC(=O)C=C[C@]4(C)[C@@]3(F)[C@@H](O)C[C@]2(C)[C@@]1(O)C(=O)COP(=O)(O)O` [DXP, Dexamethasone Phosphate], for which the “Effect on site-loss compared with control” value in the series with diabetic porcine model [1] is “performing significantly worse than the control”.

On to `CO[C@H]1C[C@@H]2CC[C@@H](C)[C@@](O)(O2)C(=O)C(=O)N2CCCC[C@H]2C(=O)O[C@H]([C@H](C)C[C@@H]2CC[C@@H](O)[C@H](OC)C2)CC(=O)[C@H](C)/C=C(\C)[C@@H](O)[C@@H](OC)C(=O)[C@H](C)C[C@H](C)/C=C/C=C/C=C/1C` [rapamycin], for which the “Effect on Site-Loss: site-loss after / duration of wear” value in the series with diabetic porcine model [1] (1 pig using Sof-Set, rapamycin later found degraded in solution after use) turned out to be 5 days. Also, the “Signs of improvement: recovery after” value with diabetic porcine model [1] (rapamycin dosed with Humalog) is “around 6 days”. Also, in the series with diabetic porcine model [1] (rapamycin spiked in insulin, around 0.6 μg/day), the “No site loss for” value was “more than 6 days”.

Regarding Insulin lispro [Humalog], in series [2], the Blood glucose lowering entry is reported as “effectively lower blood glucose level”. For the same compound, in the series with diabetic Yucatan pigs (pigs #341423 and #341424, blood glucose >350 mg/dl criterion), the Site-loss observed at result is on record as “approximately 3 days”. The “No site-loss in” value in the series with diabetic Yucatan pigs (pigs #341425 and #341426, if a proper site was located) is above 7 days. Further, in the series with diabetic pig (catheter, catheter infused with insulin (Humalog), catheter infused with placebo on one diabetic pig), the “Order of evaluated inflammation scores” value is “insulin≥placebo≥catheter; also recorded: insulin≥placebo≥cannula”. In addition, in the series with diabetic pig (setting [4]), the Localized inflammation result is on record as “associated with increased localized inflammation” and the Localized tissue fibrosis entry was “main contributor to localized tissue fibrosis”.

For the compound dextran, the Infusion site active result in the series on diabetic porcine model [1] (Sof-Set with dextran dosed insulin (FIG. 22)) is “up to 6 days”. Moreover, in the series on diabetic porcine model [1], the “Effect on site-loss compared with control” value is listed as “performing significantly better than the control”. The “Efficacy in extending infusion set wear / site-loss mitigation (in words)” value with diabetic porcine model [1] (diabetic porcine model) is “efficacy of dextran in extending infusion set wear”.

heparin: the Infusion site active entry with diabetic porcine model [1] (Sof-Set with heparin dosed insulin (FIGS. 17, 18)) was “up to 13 days”. For the same compound, the “Site-loss (glucose monitoring)” value with diabetic porcine model [1] (U100 Humalog with heparin sodium, actual 3.55 mg/mL or 685 U/mL, continuous infusion, pigs IM3 and IM4) was above 6 days. Besides, in the series on diabetic porcine model [1], the “Effect on site-loss compared with control” value was “performing significantly better than the control”. In the series on diabetic porcine model [1] (prefilled heparin/insulin, heparin 100-800 U/mL insulin (U100)), the “No site loss for” value was “greater than 13 days”. In addition, the Local toxicity entry in the series with diabetic porcine model [3] is on record as “No local toxicity was observed”.

The values are drawn from patent US12208181B2, “Medication infusion components and systems” (MEDTRONIC MINIMED, INC., priority 2017, dated 2025).
